Values quoted from earlier work, collected in patent US8470371B2, “Polymeric micellar clusters and their uses in formulating drugs” (priority 2006, dated 2013).
Blank lines part the entries; values can stand above or below the compound they belong to.

Columns and labels:
[1] = drug: propofol; literature
[2] = comparator amphiphiles

Drug Concentration [1]: 38700 µg/mL | Moles drug encapsulated per mole of polymer [1]: 0.75 [10]
Compound: 2-hydroxypropyl-β-cyclodextrin

Log P: 1.4
Compound: C[C@]12C=CC(=O)C=C1CC[C@@H]1[C@@H]2[C@@H](O)C[C@@]2(C)[C@H]1CC[C@]2(O)C(=O)CO [Prednisolone]

Compound: CC(C)c1cccc(C(C)C)c1O [Propofol]
Log P: 4.1

CMC [2]: 53 µM | HLB [2]: 16.7
Compound: polysorbate 20
